These results are taken from patent publication US20120302609A1, “Pyrazolines for the Modulation of PKM2” (Dynamix Pharmaceuticals LTD., priority 2011, published 2012).

The subject of one data set is BT-474 (Breast). Description: Cell proliferation assay (CellTiter-Glo Luminescent). Type of data set: cell-based. Conditions: Homo sapiens, Complete media, 96 hr. A general note: Cellular ATP, detected with luciferase, serves as a proxy for viable cell number.
A short description of data set [1]: H1299 nude mouse xenograft study, toxicity (body weight, deaths, organ weights). The data set is classed as in vivo, mice. The following applies: mouse, in vivo, ip; for Deaths NTR: female, nude (nu/nu). On the procedure:
The animals were fed ad libitum water (reverse osmosis, 1 ppm Cl) and NIH 31 Modified and Irradiated Lab Diet® consisting of 18.0% crude protein, 5.0% crude fat, and 5.0% crude fiber. The mice were housed on irradiated Enrich-o′ Cobs™ Laboratory Animal Bedding in static microisolators on a 12-hour light cycle at 20-22° C. (68-72° F.) and 40-60% humidity.
Dosing began on D1 in four groups of mice (n=12/group in Groups 1, 3, and 4; n=6 in Group 2). XT26 and its vehicle were administered intraperitoneally (i.p.) twice daily for 28 days (b.i.d.×28), starting with the p.m. dose on D1 and ending with the a.m. dose on D29. Gemcitabine was administered i.p. once daily at three-day intervals for four doses (q3d×4). In all groups, the dosing volume of 10 ml/kg (0.2 ml/20 g mouse) was scaled to the weight of each individual animal, as measured twice weekly.
Group 1 mice received the XT26 vehicle b.i.d.×28, and served as the controls for the study. Group 2 received gemcitabine at 120 mg/kg. Group 3 was to receive XT26 at 100 mg/kg b.i.d.×28; on D21, four mice (Animals 1, 3, 4, and 5) erroneously received 200 mg/kg XT26 for their a.m. dose. Group 4 was to receive XT26 at 200 mg/kg b.i.d.×28, but dosing stopped on D9 (b.i.d.×8) because of toxicity. Group 4 dosing at 200 mg/kg resumed on D17 on a qd (once daily)×13 dosing schedule. Because of a scheduling error, the D19 dose for Group 4 mice was omitted; qd dosing occurred on Days 17, 18, and 20-28.
Animals were weighed daily on D1-5, then twice weekly until the completion of the study. The mice were observed frequently for overt signs of any adverse, treatment-related side effects.
On D10, both kidneys and the liver were harvested from each euthanized Group 4 animal. Each organ was weighed separately, fixed overnight in 10% neutral buffered formalin, and transferred to 70% ethanol.

Data set [2] has as its system H1299 (Non-small cell lung carcinoma cell line). Description: Cell proliferation, Assay Protocol I (CellTiter-Glo). The data set is classed as cell-based. Conditions: Homo sapiens, NCI-H1299, 96 total hours of culture. As to the method:
(§1) Growth inhibitory activity against the human tumor cell lines was determined using Promega's CellTiter-Glo® assay. The cell lines of interest were placed in a 96-well microculture plate (Costar® white, flat bottom #3917) in a total volume of 90 μL/well. After 24 hours of incubation in a humidified incubator at 37° C. with 5% CO2 and 95% air, 10 μL of serially diluted test compounds in growth medium were added to each well. After 96 total hours of culture in a CO2 incubator, the plated cells and CellTiter-Glo® (Promega # G7571) reagents were brought to room temperature to equilibrate for 30 minutes. 100 μL of CellTiter-Glo® reagent was added to each well. The plate was shaken for 2 minutes and then left to equilibrate for 10 minutes before reading luminescence on the Tecan GENios microplate reader.
(§2) Percent inhibition of cell growth was calculated relative to untreated control wells. All tests were performed in duplicate for each concentration level. The IC50 value for the test compounds was estimated using Prism 3.03 by curve-fitting the data.

Data set [3] relates to SW480 (Colorectal cancer cell line). The data set is described as above. The data set is classed as cell-based. The following applies: Homo sapiens. As to the method: as §1, §2
The subject of data set [4] is HepG2 (Hepatocellular cancer cell line). Described as above. Conditions: Homo sapiens. Type of data set: cell-based. On the procedure:
as §1, §2

Data set [5] concerns A549 (Non-small cell lung carcinoma cell line). The data set is described as above. The data set is classed as cell-based. The following applies: Homo sapiens. On the procedure:
as §1, §2

The nature of data set [6]: HT-29 xenograft mouse model, safety (body weight, observations). The data set is classed as in vivo. As to the method: (§3) This example illustrates the efficacy and safety of a compound according to embodiments of the present invention, i.e., Compound 1A, using a HT-29 xenograft mouse model (a colorectal cancer model).
All the procedures related to animal handling, care, and the treatment in this study were performed according to approved guidelines a following the guidance of the Association for Assessment and Accreditation of Laboratory Animal Care (AAALAC). At the time of routine monitoring, the animals were checked for any effects of tumor growth and treatments on normal behavior such as mobility, food and water consumption (by looking only), body weight gain/loss (body weights were measured thrice weekly), eye/hair matting and any other abnormal effect. Death and observed clinical signs were recorded on the basis of the numbers of animals within each subset.
• a. Blood samples were collected after the 1st dose and the 23rd dose. Collected blood samples from 2 animals in each group at the designated timepoints post dose. The detailed timepoints are as below: • For the groups with QD dosing schedule: 1, 4, 8 and 24 hr post dose. • For the groups with Q2D dosing schedule: 1, 8, 24 and 48 hr post dose. • b. 20 μl blood was collected via tail vein in EDTA-2K tube (0.5 ml tube containing 0.4 μl 15% EDTA-2K. 60u1 double distilled water was added into the tube and mixed well.

The subject of another data set is HT-29 xenograft. Description: HT-29 xenograft mouse model, tumor efficacy. The data set is classed as in vivo. The following applies: i.p. On the procedure: as §3
The HT-29 cells were maintained in vitro as a monolayer culture in McCoy's 5A medium supplemented with 10% heat inactivated fetal bovine serum, 100 U/ml penicillin and 100 μg/ml streptomycin at 37° C. in an atmosphere of 5% CO2 in air. The tumor cells were routinely subcultured twice weekly by trypsin-EDTA treatment. The cells growing in an exponential growth phase were harvested and counted for tumor inoculation.
65 mice were inoculated subcutaneously at the right flank with 3.0×10^6 HT-29 tumor cells in 0.1 ml of serum-free medium for tumor development. The treatments were started when the tumor size reached approximately 75 (50-100) mm^3. The test article administration and the animal numbers in each group are shown in the following experiment design Table 5.
The major endpoint was to see if the tumor growth can be delayed or mice can be cured. Tumor size was measured three times weekly in two dimensions using a caliper, and the volume was expressed in mm^3 using the formula: V=0.5 a×b^2 where a and b are the long and short diameters of the tumor, respectively. The tumor size was then used for calculations of both T-C and TGI values. T-C was calculated with T as the median time (in days) required for the treatment group tumors to reach a predetermined size (e.g., 1,000 mm^3), and C as the median time (in days) for the control group tumors to reach the same size. The TGI (in percent)=(T−C)/C*100% represents the tumor growth inhibition rate, T and C were the mean volume of the treated and control groups, respectively, on a given day. Tumor weight was measured at the study termination. The T/C value (in percent) was calculated where T and C are the mean tumor weights of the treated and control groups, respectively.

Take `COc1ccc([C@@H]2CC(c3ccc(NS(=O)(=O)c4ccc(F)cc4)cc3)=NN2C(C)=O)cc1` [Compound 13A, (S)—N-(4-(1-acetyl-5-(4-methoxyphenyl)-4,5-dihydro-1H-pyrazol-3-yl)phenyl)-4-fluorobenzenesulfonamide]: the AC50 in the data set on BT-474 (Breast) was 10 to 20 µM. Further, the “Deaths NTR” value in data set [1] (100 mg/kg, 28 days) is recorded as 0; in data set [1] (200 mg/kg) it was 0. Further, the “Mean BW Nadir” value in data set [1] (200 mg/kg) was −13.6%.
Consider `CCS(=O)(=O)Nc1ccc(C2=NN(C(C)=O)C(c3ccc(OC)cc3)C2)cc1` (racemic) [Compound 1A, N-(4-(1-acetyl-5-(4-methoxyphenyl)-4,5-dihydro-1H-pyrazol-3-yl)phenyl)ethanesulfonamide], for which the IC50 was 40 to 100 µM in data set [2], 40 to 100 µM in data set [3], 40 to 100 µM in data set [4] and under 40 µM in data set [5]. Besides, in data set [6] (all the treatment groups (100-400 mg/kg i.p.)), the body weight loss entry is “No significant body weight loss”. Besides, in data set [6] (highest dosage level 400 mg/kg QD), the “in vivo safety profile” value is recorded as “good in vivo safety profile”. For the same compound, the anti-tumor activity entry in the data set on HT-29 xenograft (100 mg/kg Q2D) and in the data set on HT-29 xenograft (200 mg/kg QD) was “statistically significantly anti-tumor activity” throughout. Further, the “TGI reached by day ten” value in the data set on HT-29 xenograft (200 mg/kg QD) and with HT-29 xenograft (400 mg/kg QD) was over 50% throughout. Further, the “Tumor Growth Inhibition (TGI)” value in the data set on HT-29 xenograft (400 mg/kg QD, HT-29 xenograft, BALB/c nude mice) is 42%.

The AC50 is the midpoint of the concentration-response curve, whichever way the signal moves. One may read the IC50 as the concentration that gives 50% inhibition. Higher therefore signals a need for much substance.
